Test results reported in patent US10131932B2, “Method for assaying a protease” (McMaster University, priority 2013, dated 2018).

B1: alpha-2-macroglobulin: thrombin-binding plasma inhibitor protein (protein, UniProt P01023 24-1474, looked up)
Alpha-2-macroglobulin: SVSGKPQYMVLVPSLLHTETTEKGCVLLSYLNETVTVSASLESVRGNRSLFTDLEAENDVLHCVAFAVPKSSSNEEVMFLTVQVKGPTQEFKKRTTVMVKNEDSLVFVQTDKSIYKPGQTVKFRVVSMDENFHPLNELIPLVYIQDPKGNRIAQWQSFQLEGGLKQFSFPLSSEPFQGSYKVVVQKKSGGRTEHPFTVEEFVLPKFEVQVTVPKIITILEEEMNVSVCGLYTYGKPVPGHVTVSICRKYSDASDCHGEDSQAFCEKFSGQLNSHGCFYQQVKTKVFQLKRKEYEMKLHTEAQIQEEGTVVELTGRQSSEITRTITKLSFVKVDSHFRQGIPFFGQVRLVDGKGVPIPNKVIFIRGNEANYYSNATTDEHGLVQFSINTTNVMGTSLTVRVNYKDRSPCYGYQWVSEEHEEAHHTAYLVFSPSKSFVHLEPMSHELPCGHTQTVQAHYILNGGTLLGLKKLSFYYLIMAKGGIVRTGTHGLLVKQEDMKGHFSISIPVKSDIAPVARLLIYAVLPTGDVIGDSAKYDVENCLANKVDLSFSPSQSLPASHAHLRVTAAPQSVCALRAVDQSVLLMKPDAELSASSVYNLLPEKDLTGFPGPLNDQDNEDCINRHNVYINGITYTPVSSTNEKDMYSFLEDMGLKAFTNSKIRKPKMCPQLQQYEMHGPEGLRVGFYESDVMGRGHARLVHVEEPHTETVRKYFPETWIWDLVVVNSAGVAEVGVTVPDTITEWKAGAFCLSEDAGLGISSTASLRAFQPFFVELTMPYSVIRGEAFTLKATVLNYLPKCIRVSVQLEASPAFLAVPVEKEQAPHCICANGRQTVSWAVTPKSLGNVNFTVSAEALESQELCGTEVPSVPEHGRKDTVIKPLLVEPEGLEKETTFNSLLCPSGGEVSEELSLKLPPNVVEESARASVSVLGDILGSAMQNTQNLLQMPYGCGEQNMVLFAPNIYVLDYLNETQQLTPEIKSKAIGYLNTGYQRQLNYKHYDGSYSTFGERYGRNQGNTWLTAFVLKTFAQARAYIFIDEAHITQALIWLSQRQKDNGCFRSSGSLLNNAIKGGVEDEVTLSAYITIALLEIPLTVTHPVVRNALFCLESAWKTAQEGDHGSHVYTKALLAYAFALAGNQDKRKEVLKSLNEEAVKKDNSVHWERPQKPKAPVGHFYEPQAPSAEVEMTSYVLLAYLTAQPAPTSEDLTSATNIVKWITKQQNAQGGFSSTQDTVVALHALSKYGAATFTRTGKAAQVTIQSSGTFSSKFQVDNNNRLLLQQVSLPELPGEYSMKVTGEGCVYLQTSLKYNILPEKEEFPFALGVQTLPQTCDEPKAHTSFQISLSVSYTGSRSASNMAIVDVKMVSGFIPLKPTVKMLERSNHVSRTEVSSNHVLIYLDKVSNQTLSLFFTVLQDVPVRDLKPAIVKVYDYYETDEFAIAEYNAPCSKDLGNA

What was measured:
[1] = tested on: thrombin generation in whole blood; assay: Thrombin generation in unanticoagulated whole blood with FRET-protein substrate; type: biochemical, human; settings: for area-under-the-curve of slope of the ratio curve / maximal upslope of slope of the ratio curve / peak height of slope of the ratio curve / thrombin generation: increasing amounts of anticoagulant in whole blood
Description: In this experiment, 12 μL of unanticoagulated human blood, obtained from a finger prick of a healthy human donor, was added to a plastic vessel (NUNC, Polystyrene, 384 well plate) containing the T13 FRET-protein substrate (8 μL in PIPES buffer, 4.6 μM final concentration) within 30 seconds of lancing the finger. Results were obtained on a fluorescence spectrophotometer, as above, temperature controlled to 37° C. Initially, as the mixture warms, the ratio of emission at 526 nm:581 nm decreases slightly, but then increases, initially sharply to a plateau as shown in FIG. 6.
The slope (first derivative) of the ratio was then determined using a mathematical program such as Excel or GraphPad Prism as shown in FIG. 7A. The curve of the slope of the ratio is smoothed using 20 neighbours using a mathematical program (Excel or GraphPad Prism). This is the typical appearance of a thrombin generation curve in plasma. Parameters that could be used to describe this curve include, but are not limited to, peak height, time to peak, lag time, maximal upslope, and area-under-the curve to a certain time point. FIG. 7B compares a) 12 μL blood combined with FRET-protein substrate (final conc. 4.6 μM) to final volume of 20 μL to b) 20 μL blood combined with FRET-protein substrate (final conc. 5.1 μM) to a final volume of 22.5 μL. The time-to-peak and lag-time are shortened and the peak height, maximal upslope and area-under-the-curve are increased in the latter where the blood is less dilute.
The effect of rivaroxaban on thrombin generation in the blood was determined. Unanticoagulated blood was taken from a finger prick of a healthy volunteer. The blood was added to a plastic vessel containing the FRET-protein substrate (0.62 μM) and rivaroxaban at various concentrations (to a final concentration of 5 μg/L, 25 μg/L and 50 μg/L).
The effect of apixaban on thrombin generation in the blood was also determined. Blood was added to FRET-protein substrate and various concentrations of apixaban was (to a final concentration of 25 μg/L, 100 μg/L, 400 μg/L and 1000 μg/L). Apixaban also alters the shape of the “slope of the ratio curve”.
The effect of dabigatran on thrombin generation in the blood was also determined. Blood was added to FRET-protein substrate and various concentrations of […] was (to a final concentration of 25 μg/L, 100 μg/L and 400 μg/L). Dabigatran also alters the shape of the “slope of the ratio curve”. […]

Thrombin [2] = assay: Thrombin activity on substrate S2238 with inhibitors; type: biochemical; settings: 60 minutes incubation, alpha-2-macroglobulin 0.2 μM, PPAck 20 μM
Description: The effect of thrombin substrate, S2238, on thrombin activity in the presence and absence of alpha-2-macroglobulin was then determined. Following addition of thrombin (as above), thrombin incubated with alpha-2-macroglobulin for 60 minutes (as above), thrombin incubated with PPAck (as above) for 60 minutes, or thrombin incubated with alpha-2-macroglobulin (0.2 μM) and PPAck (20 μM) for 60 minutes, to S2238, thrombin activity was determined.

Thrombin [3] = assay: Thrombin activity on T13 FRET-protein substrate with inhibitors; type: biochemical; settings: 60 minutes incubation, alpha-2-macroglobulin 0.2 μM, PPAck 20 μM
Description: The effect of the FRET-protein substrate on the thrombin activity in the absence and presence of alph-2-macroglobulin was then determined. Following addition of either thrombin (as above), thrombin incubated with alpha-2-macroglobulin for 60 minutes (as above) or thrombin incubated for 60 minutes with the thrombin inhibitor, PPAck (D-FPR-chloromethyl ketone, 20 μM), thrombin activity was determined. Thrombin was inhibited by either alpha-2-macroglobulin or PPAck, as shown by the reduction in the slope of the ratio for each (FIG. 11B).

Thrombin [4] = assay: Fibrinogen clotting by thrombin, turbidity at 405 nm; type: biochemical; settings: 0.2 μM
Description: The effect of alpha-2-macroglobulin on thrombin activity was determined. Thrombin (2 nM) and calcium (5 mM) were combined in PIPES buffer. Clotting was initiated by the addition of fibrinogen (3 μM). Clotting was measured by monitoring turbidity 405 nm using a spectrometer. The fibrinogen clotted within 10 minutes and remained clotted.

Row | Molecule | area-under-the-curve of slope of the ratio curve [1] | maximal upslope of slope of the ratio curve [1] | peak height of slope of the ratio curve [1] | thrombin generation [1] | thrombin activity (slope of absorbance) (Thrombin [2]) | thrombin activity (slope of the ratio) (Thrombin [3]) | also measured
1 | corn trypsin inhibitor |  |  |  |  |  |  | thrombin generation (peak of slope of ratio) ([1]; 200 μg/mL final concentration, unanticoagulated whole blood): delay and reduce
2 | O=C(NC[C@H]1CN(c2ccc(N3CCOCC3=O)cc2)C(=O)O1)c1ccc(Cl)s1 [rivaroxaban] | decreased | decreased | decreased | decrease thrombin generation |  |  | 
3 | NC(N)=NCCC[C@H](NC(=O)[C@@H]1CCCN1C(=O)[C@H](N)Cc1ccccc1)C(=O)CCl [PPAck, D-FPR-chloromethyl ketone] |  |  |  |  | substantial inhibition | inhibited | 
4 | COc1ccc(-n2nc(C(N)=O)c3c2C(=O)N(c2ccc(N4CCCCC4=O)cc2)CC3)cc1 [apixaban] | decreased | decreased | decreased | decreases thrombin generation |  |  | time to peak ([1]; anticoagulant in whole blood, dabigatran at higher concentrations): increase the time to peak
5 | B1 |  |  |  |  | little inhibition | inhibited | clotting of fibrinogen (Thrombin [4]; pre-incubation with thrombin (2 nM) for 35 minutes): reduced clotting; clotting of fibrinogen (Thrombin [4]; pre-incubation with thrombin (2 nM) for 60 minutes): inhibited clotting
